Experimental data reported in patent publication US7560262B2, “Polynucleotide sequences encoding alkaline α-galactosidases and methods of using same” (The State of Israel - Ministry of Agriculture & Rural …, priority 2002, dated 2009).
Where two headings read alike, the source gives them in different places.

Assays:
[1] = molecular target: recombinant Aga-I (alkaline-α-galactosidase I) (Cucumis melo, UniProt A0ABM3L1M0); assay: α-galactosidase assay of E. coli extracts: substrate specificity of recombinant Aga-I; format: biochemical; details: for activity of recombinant Aga-I with nitrophenyl substrates: recombinant Aga-I extract; for Activity (calculated specific activity): recombinant Aga-I, substrate 10 mM, pH 8
Method: α-galactosidase assay of E. coli extracts—α-galactosidase activity was assayed as described by Smart and Pharr [Smart and Pharr (1980) Plant Physiol. 66:731-734] and as performed by Gao and Schaffer (1999) Plant Physiol. 119:979-987]. Reaction was initiated by adding 50 μl enzyme aliquot to 200 μl McIlvaine buffer (made by mixing stock solutions of 0.1M citric acid and 0.2M sodium hydrogen phosphate to achieve pH of 5.0 and 7.0 for the assay of acid and alkaline activity, respectively) and 50 μl substrate (final concentration, 5 mM for pNPG and 10 mM for the natural substrates). Optimum pH for galactosidase activity was determined using the following reaction buffers: Mcllvaine buffer, over a pH range of 4 to 7, 100 mM Hepes buffer over a pH range of 7 to 8, or 50 mM Tris buffer over a pH range of 8 to 8.7. […] In addition, substrate concentration dependence of the reaction was measured by varying the substrate concentrations from 0-10 mM. Km and Vmax values were calculated using Lineweaver-Burk plots.

[2] = test system: alkaline α-galactosidase from Cucurbita pepo leaves; details: cited from earlier work; for affinity as substrate: Gaudreault and Webb; for inhibition of the enzyme's activity by the reaction product: Gaudreault and Webb 1983
[3] = substrate: OC[C@H]1O[C@H](OC[C@H]2O[C@H](OC[C@H]3O[C@H](O[C@]4(CO)O[C@H](CO)[C@@H](O)[C@@H]4O)[C@H](O)[C@@H](O)[C@@H]3O)[C@H](O)[C@@H](O)[C@H]2O)[C@H](O)[C@@H](O)[C@H]1O; assay: purified protein, by the assay type; details: other: recombinant Aga-I, pH 8, Lineweaver-Burk plots
[4] = substrate: OC[C@H]1O[C@H](OC[C@H]2O[C@H](O[C@]3(CO)O[C@H](CO)[C@@H](O)[C@@H]3O)[C@H](O)[C@@H](O)[C@@H]2O)[C@H](O)[C@@H](O)[C@H]1O; assay: purified protein, by the assay type; details: other: recombinant Aga-I, pH 8, Lineweaver-Burk plots
[5] = pH and temperature dependence of α-galactosidase activity of recombinant Aga-I and Aga-II; format: biochemical; details: for pH of maximal α-galactosidase activity: extracts of transformed E. coli, pNPG, FIG. 4
Method: α-galactosidase assay of E. coli extracts—α-galactosidase activity was assayed as described by Smart and Pharr [Smart and Pharr (1980) Plant Physiol. 66:731-734] and as performed by Gao and Schaffer (1999) Plant Physiol. 119:979-987]. Reaction was initiated by adding 50 μl enzyme aliquot to 200 μl McIlvaine buffer (made by mixing stock solutions of 0.1M citric acid and 0.2M sodium hydrogen phosphate to achieve pH of 5.0 and 7.0 for the assay of acid and alkaline activity, respectively) and 50 μl substrate (final concentration, 5 mM for pNPG and 10 mM for the natural substrates). […] Substrates used were the synthetic substrates based on p-nitrophenol (pNP-sugars), including the pNPa-gal (Sigma) and the natural substrates stachyose, raffinose and melibiose. In addition, substrate concentration dependence of the reaction was measured by varying the substrate concentrations from 0-10 mM. Km and Vmax values were calculated using Lineweaver-Burk plots.

Molecule: O=[N+]([O-])c1ccc(O[C@@H]2O[C@H](CO)[C@@H](O)[C@H](O)[C@@H]2O)cc1 [pNP-βMan]
- activity of recombinant Aga-I with nitrophenyl substrates [1]: no activity

Molecule: C[C@@H]1O[C@@H](Oc2ccc([N+](=O)[O-])cc2)[C@@H](O)[C@H](O)[C@@H]1O [pNP-Fuc]
- activity of recombinant Aga-I with nitrophenyl substrates [1]: no activity

Molecule: O=[N+]([O-])c1ccc(O[C@@H]2O[C@H](CO)[C@H](O)[C@H](O)[C@H]2O)cc1 [pNP-βGal]
- activity of recombinant Aga-I with nitrophenyl substrates [1]: some activity

Molecule: OC[C@H]1O[C@H](OC[C@H]2O[C@H](O[C@]3(CO)O[C@H](CO)[C@@H](O)[C@@H]3O)[C@H](O)[C@@H](O)[C@@H]2O)[C@H](O)[C@@H](O)[C@H]1O [Raffinose, O-α-D-galactopyranosyl-(1-6)-O-α-D-glucopyranosyl-(1-2)-beta-D-fructofuranoside]
- Activity (calculated specific activity) [1]: 482 nmol/mg protein/minute
- affinity as substrate [2]: low affinity

Molecule: CC(=O)N[C@H]1[C@H](Oc2ccc([N+](=O)[O-])cc2)O[C@H](CO)[C@@H](O)[C@@H]1O [pNP-NacG]
- activity of recombinant Aga-I with nitrophenyl substrates [1]: no activity

Molecule: 6-O-α-D-galactopyranosyl-D-glucose [Melibiose]
- Activity (calculated specific activity) [1]: 124 nmol/mg protein/minute
- affinity as substrate [2]: low affinity

Molecule: OC[C@H]1O[C@H](OC[C@H]2O[C@H](OC[C@H]3O[C@H](O[C@]4(CO)O[C@H](CO)[C@@H](O)[C@@H]4O)[C@H](O)[C@@H](O)[C@@H]3O)[C@H](O)[C@@H](O)[C@H]2O)[C@H](O)[C@@H](O)[C@H]1O [Stachyose, O-α-D-galactopyranosyl-(1-6)-O-α-D-galactopyranosyl-(1-6)-O-α-D-glucopyranosyl-(1-2)-beta-D-fructofuranoside]
- Activity (calculated specific activity) [1]: 645 nmol/mg protein/minute

Molecule: O=[N+]([O-])c1ccc(O[C@@H]2O[C@H](CO)[C@@H](O)[C@H](O)[C@H]2O)cc1 [pNP-βGlu]
- activity of recombinant Aga-I with nitrophenyl substrates [1]: no activity

Molecule: O=[N+]([O-])c1ccc(O[C@H]2O[C@H](CO)[C@@H](O)[C@H](O)[C@H]2O)cc1 [pNP-αGlu]
- activity of recombinant Aga-I with nitrophenyl substrates [1]: no activity

Molecule: O=[N+]([O-])c1ccc(O[C@H]2O[C@H](CO)[C@@H](O)[C@H](O)[C@@H]2O)cc1 [pNP-αMan]
- activity of recombinant Aga-I with nitrophenyl substrates [1]: no activity

Molecule: OC[C@H]1O[C@H](O)[C@H](O)[C@@H](O)[C@H]1O [α-D-galactose]
- inhibition of the enzyme's activity by the reaction product [2]: strong inhibitor
- inhibition of the enzyme's activity by the reaction product ([2]; listed as α-galactose): strongly inhibited

B1: recombinant Aga-I (alkaline-α-galactosidase I) (Cucumis melo) (protein)
chain: MTVGAGITISDANLTVLGNRVLSDVHNNITLTAAPGGGVMNGAFIGVQSDQIGSRRVFPIGKLIGLRFLCAFRFKLWWMTQRMGCSGQEVPFETQFLVVETRDGSNIAGNGEEGDAVYTVFLPILEGDFRAVLQGNDNNEIEICLESGDPSVDGFEGSHLVFVGAGSDPFETITYAVKSVEKHLQTFAHRERKKMPDILNWFGWCTWDAFYTDVTSDGVKKGLESFENGGIPPKFVIIDDGWQSVAKDATSADCKADNTANFANRLTHIKENYKFQKDGKEGERIENPALGLQHIVSYMKEKHATKYVYVWHAITGYWGGVSAGVKEMEQYESKIAYPVASPGVESNEPCDALNSITKTGLGLVNPEKVFNFYNEQHSYLASAGVDGVKVDVQNILETLGAGHGGRVKLARKYHQALEASISRNFQDNGIISCMSHNTDGLYSSKRNAVIRASDDFWPRDPASHTIHIASVAYNSLFLGEFMQPDWDMFHSLHPMAEYHGAARAVGGCAIYVSDKPGQHDFNLLKKLVLPDGSILRAKLPGRPTKDCLFTDPARDGKSLLKIWNLNDLSGVVGVFNCQGAGWCKVGKKNLIHDENPDTITGVIRAKDVSYLWKIAGESWTGDAVIFSHLAGEVVYLPQDASMPITLKPREFDVFTVVPVKELVNDIKFAPIGLIKMFNSGGAVKEMNHQPGSSNVSLKVRGSGPFGAYSSSKPKRVAVDSEEVEFMYDEGGLITIDLKVPEKELYLWDIRIEL
- Km [3]: 1900 µM
- Km [4]: 1800 µM

B2: Aga-I: Cucumis melo alkaline-α-galactosidase I, SEQ ID NO: 6, encoded by SEQ ID NO: 5 (protein)
chain: B1 chain
modifications: Cucumis melo
- pH of maximal α-galactosidase activity [5]: 8 pH
- galactosidase activity at pH 9 ([5]; pH 9, data not shown): activity was still observed
- pH range of highest galactosidase activity ([5]; recombinant Aga-I, data not shown): 7.5-8 pH

B3: Aga-II: Cucumis melo alkaline α-galactosidase II, SEQ ID NO: 10, encoded by SEQ ID NO: 9 (protein)
chain: MTVTPKISVNDGNLVVHGKTILTGVPDNIVLTPGSGLGLVAGAFIGATASNSKSLHVFPVGVLEGTRFLCCFRFKLWWMTQRMGTSGRDIPFETQFLLMESKGNDGEDPDNSSTIYTVFLPLLEGQFRAALQGNEKNEMEICLESGDNTVETNQGLSLVYMHAGTNPFEVITQAVKAVEKHTQTFLHREKKKLPSFLDWFGWCTWDAFYTDVTAEGVVEGLKSLSEGGAPPKFLIIDDGWQQIEAKPKDADCVVQEGAQFASRLSGIKENHKFQKNGNNYDQVPGLKVVVDDAKKQHKVKFVYAWHALAGYWGGVKPASPGMEHYDSALAYPVQSPGMLGNQPDIVVDSLAVHGIGLVHPKKVFNFYNELHSYLASCGIDGVKVDVQNIIETLGAGHGGRVTLTRSYHQALEASIARNFSDNGCIACMCHNTDSLYSAKQTAVVRASDDYYPRDPASHTIHISSVAYNSLFLGEFMQPDWDMFHSLHPTAEYHGAARAIGGCAIYVSDKPGNHNFDLLKKLVLPDGSVLRAQLPGRPTRDSLFNDPARDGTSLLKIWNMNKCSGVVGVFNCQGAGWCRITKKTRIHDESPGTLTTSVRAADVDAISQVAGADWKGDTIVYAYRSGDLIRLPKGASVPVTLKVLEYDLLHISPLKDIASNISFAPIGLLDMFNTGGAVEQVNVQVVEPIPEFDGEVASELTCSLPNDRPPTATITMKARGCRRFGLYSSQRPLKCSVDKVDVDFVYDEVTGLVTFEIPIPTEEMYRWNIEIQV
modifications: Cucumis melo
- pH of maximal α-galactosidase activity [5]: 8 pH
